In ChEMBL document CHEMBL1201862, “PubChem BioAssay data set” (2004):
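These data come from cells grown in 96-well plates and exposed to compound for 48 hours at five concentrations. At the GI50, growth is halved.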 Active and inactive are the calls of the source. No stated cut-off is given here; in the data, active = GI50 up to about 1.1 µM and inactive = higher.

Legend:
Assay in all cases: inhibition of tumour cell growth, NCI panel, 48 h
SK-MEL-5 = tested on: SK-MEL-5
M14 = tested on: M14
HT-29 = tested on: HT-29
SK-OV-3 = tested on: SK-OV-3
CCRF-CEM = tested on: CCRF-CEM
OVCAR-4 = tested on: OVCAR-4
A549 = tested on: A549
786-0 = tested on: 786-0
EKVX = tested on: EKVX
HL-60 = tested on: HL-60
NCI-H23 = tested on: NCI-H23
A498 = tested on: A498
SNB-19 = tested on: SNB-19
U-251 = tested on: U-251
SK-MEL-28 = tested on: SK-MEL-28
ACHN = tested on: ACHN

Measured: GI50

O=C1c2c(nc3ccccc3c2-c2ccccc2)CN1Nc1ccccc1
inactive: SK-MEL-5 > 100 µM | M14 > 100 µM | HT-29 > 100 µM | SK-OV-3 > 100 µM | CCRF-CEM > 100 µM | OVCAR-4 > 100 µM | A549 > 100 µM | 786-0 > 100 µM | EKVX > 100 µM | HL-60 45.3 µM

CC1CC2(CC[C@@H]1O)OCCO2 (some centres undefined)
inactive: SK-MEL-5 > 100 µM | M14 > 100 µM | HT-29 > 100 µM | SK-OV-3 > 100 µM | CCRF-CEM > 100 µM | NCI-H23 > 100 µM | OVCAR-4 > 100 µM | A549 > 100 µM | 786-0 > 100 µM | A498 > 100 µM | SNB-19 > 100 µM | EKVX > 100 µM | U-251 > 100 µM | HL-60 > 100 µM

COC(=O)C1=C(c2ccc3c(c2)OCO3)OC(c2ccc3c(c2)OCO3)C1 (centres undefined)
inactive: SK-MEL-5 68.5 µM | M14 > 100 µM | HT-29 > 100 µM | SK-OV-3 > 100 µM | CCRF-CEM > 100 µM | SK-MEL-28 > 100 µM | NCI-H23 > 100 µM | OVCAR-4 > 100 µM | ACHN 80.9 µM | A549 78.2 µM | 786-0 > 100 µM | A498 > 100 µM | EKVX > 100 µM | U-251 93.8 µM | HL-60 > 100 µM

COc1cc(CC(C(=O)O)C(=O)O)c(OC)cc1CC(C(=O)O)C(=O)O
inactive: SK-MEL-5 > 100 µM | M14 > 100 µM | HT-29 > 100 µM | SK-OV-3 > 100 µM | CCRF-CEM > 100 µM | NCI-H23 > 100 µM | OVCAR-4 > 100 µM | A549 > 100 µM | 786-0 > 100 µM | A498 > 100 µM | SNB-19 > 100 µM | EKVX > 100 µM | U-251 > 100 µM | HL-60 > 100 µM

Cc1nc2c(ccc3ncccc32)[nH]1
inactive: SK-MEL-5 > 100 µM | M14 > 100 µM | HT-29 > 100 µM | SK-OV-3 > 100 µM | CCRF-CEM > 100 µM | SK-MEL-28 > 100 µM | NCI-H23 > 100 µM | OVCAR-4 > 100 µM | ACHN > 100 µM | A549 > 100 µM | 786-0 > 100 µM | SNB-19 > 100 µM | EKVX > 100 µM | U-251 > 100 µM | HL-60 > 100 µM

O=C1c2ccccc2NC1(c1ccccc1)c1c(-c2ccccc2)[nH]c2ccccc12 (centres undefined)
inactive: M14 22.1 µM | HT-29 17.9 µM | SK-OV-3 37.5 µM | CCRF-CEM 6.3 µM | SK-MEL-28 37.5 µM | NCI-H23 21.4 µM | OVCAR-4 8.99 µM | ACHN 9.25 µM | A549 3.98 µM | 786-0 18.2 µM | A498 32.8 µM | SNB-19 37.3 µM | EKVX 35.2 µM | U-251 14.4 µM | HL-60 5.04 µM

CCCCCCCCCc1cc(=O)c2ccc(O)cc2o1
inactive: SK-MEL-5 43.5 µM | M14 > 100 µM | HT-29 > 100 µM | SK-OV-3 60.3 µM | CCRF-CEM 16.9 µM | SK-MEL-28 > 100 µM | NCI-H23 63.5 µM | OVCAR-4 22.3 µM | ACHN 42.2 µM | A549 37.6 µM | 786-0 39.8 µM | SNB-19 44.6 µM | EKVX > 100 µM | U-251 33.8 µM | HL-60 11.6 µM

COc1ccc(/C=C2/CCCC/C2=N/O)cc1
inactive: M14 > 100 µM | HT-29 > 100 µM | SK-OV-3 > 100 µM | CCRF-CEM 51.6 µM | SK-MEL-28 > 100 µM | NCI-H23 93.1 µM | OVCAR-4 69.5 µM | ACHN 88.9 µM | A549 > 100 µM | 786-0 > 100 µM | A498 24.2 µM | SNB-19 > 100 µM | EKVX > 100 µM | U-251 > 100 µM | HL-60 > 100 µM

Cn1c(=O)nc2n(-c3cc(C(F)(F)F)cc(C(F)(F)F)c3)c3ccccc3nc-2c1=O
inactive: SK-MEL-5 8.18 µM | M14 > 100 µM | HT-29 > 100 µM | SK-OV-3 > 100 µM | SK-MEL-28 > 100 µM | NCI-H23 > 100 µM | OVCAR-4 40.3 µM | ACHN 75.3 µM | A549 > 100 µM | 786-0 > 100 µM | A498 > 100 µM | SNB-19 49 µM | EKVX > 100 µM | U-251 > 100 µM | HL-60 > 100 µM

O=C(Nc1ccccc1-c1nn(CO)c(=S)n(CO)c1=O)C(F)(F)F
inactive: SK-MEL-5 31.8 µM | M14 > 100 µM | HT-29 > 100 µM | SK-OV-3 > 100 µM | CCRF-CEM > 100 µM | SK-MEL-28 > 100 µM | NCI-H23 > 100 µM | OVCAR-4 > 100 µM | ACHN > 100 µM | A549 > 100 µM | 786-0 > 100 µM | SNB-19 > 100 µM | EKVX > 100 µM | U-251 > 100 µM

COC12CCC(=O)C=C1c1ccccc1N2C(C)=O (centres undefined)
inactive: HT-29 > 100 µM | SK-OV-3 > 100 µM | CCRF-CEM > 100 µM | SK-MEL-28 > 100 µM | NCI-H23 > 100 µM | OVCAR-4 > 100 µM | ACHN > 100 µM | A549 > 100 µM | 786-0 > 100 µM | A498 > 100 µM | SNB-19 > 100 µM | EKVX > 100 µM | U-251 > 100 µM | HL-60 > 100 µM

CCOC(=O)C(=O)Nc1ccc(Cl)c(C(F)(F)F)c1
inactive: SK-MEL-5 > 100 µM | M14 > 100 µM | HT-29 > 100 µM | SK-OV-3 > 100 µM | CCRF-CEM > 100 µM | SK-MEL-28 > 100 µM | NCI-H23 > 100 µM | OVCAR-4 > 100 µM | ACHN > 100 µM | A549 > 100 µM | 786-0 > 100 µM | SNB-19 > 100 µM | EKVX > 100 µM | U-251 > 100 µM | HL-60 > 100 µM

COC/C=C\COC
inactive: SK-MEL-5 > 100 µM | M14 > 100 µM | HT-29 > 100 µM | SK-OV-3 > 100 µM | CCRF-CEM > 100 µM | SK-MEL-28 > 100 µM | OVCAR-4 > 100 µM | ACHN > 100 µM | A549 > 100 µM | 786-0 > 100 µM | SNB-19 > 100 µM | EKVX > 100 µM | U-251 > 100 µM | HL-60 > 100 µM

COc1ccc(/C=c2\sc3n(c2=O)C(N)=C(C#N)C(c2ccc(OC)cc2)C=3c2nc3ccccc3[nH]2)cc1 (centres undefined)
inactive: SK-MEL-5 16.9 µM | M14 77.1 µM | CCRF-CEM 39.2 µM | SK-MEL-28 18.5 µM | NCI-H23 5.02 µM | OVCAR-4 > 100 µM | ACHN 34.4 µM | A549 33.7 µM | 786-0 > 100 µM | A498 29.6 µM | SNB-19 > 100 µM | EKVX 22.6 µM | U-251 18 µM | HL-60 41.2 µM
